Experimental data: patent US20080255368A1, “Tgf-ß Gene Expression Inhibitor” (Nihon University, priority 2004, published 2008)

How the values were obtained:
TGF-β1 messenger RNA = test: Inhibition of expression of TGF-β1 messenger RNA in PMA-stimulated human mesangium cells (RT-PCR); assay type: cell-based; conditions: 12 hours serum-free; for inhibition of expression of TGFβ1 gene: 1×10^−6 M polyamide, 1×10^−6 M PMA stimulation, corrected with 18S
Protocol: (6) Reverse Transcription-Polymerase Chain Reaction (RT-PCR) Assay for RNA Extraction and Growth Factor mRNA
The cultured cells were washed with PBS, dissolved in 1,000 μL of Trizol (Invitrogen), mixed with 100 μL of chloroform, and centrifuged, and an upper aqueous phase thereof was mixed with an equal volume of isopropanol to precipitate RNA. The resulting RNA pellet was washed twice with 500 μL of 75% ethanol, dried, and dissolved in 10 μL of TE buffer solution. The RNA sample was denatured for 15 minutes at 65° C., and treated at room temperature for 45 minutes with 0.5 U of DNase (Gibco) in 0.5 ml of DNase buffer solution (20 mM Tris-HCl pH 8.3, 50 mM KCl, 2.5 mM MgCl2. The DNase was inactivated by adding 0.5 mL of 0.5 M EDTA and heating at 98° C. for 10 minutes.
An equal volume of RNA (1 μg/20 μL) was reverse-transcribed into single-stranded cDNA by 2.5 U/20 μL of avian myeloblastoma virus reverse transcriptase (Takara Biochemicals, Osaka, Japan) in 10 mM Tris-HCl (pH 8.3), 5 mM MgCl2, 50 mM KCl, 1 mM deoxy-NTPs, and 2.5 μM random hexamer. Then, 2 μL of the diluted cDNA product was mixed with 10 mM Tris-HCl (pH 8.3), 50 mM KCl, 4 mM MgCl2, 0.025 U/μL Taq DNA polymerase (Takara Biochemicals, Osaka, Japan), and 0.2 μM each of upstream sense primer and downstream antisense primer in a final volume of 25 μL. The sense primer (5′-[…]-3′) (SEQ ID NO: 7) and the antisense primer (5′-[…]-3′) (SEQ ID NO: 8) were used for PCR amplification of hTGF-β1 mRNA. A sense primer (5′-[…]-3′) (SEQ ID NO: 9) and an antisense primer (5′-[…]-3′) (SEQ ID NO:. 10) to human 18S ribosomal RNA were used as an internal control. PCR was performed by a Thermal Cycler (Perkin Elmer, Foster, Calif.). […] For semi-quantitative analysis of mRNA, the numbers of cycles whereby PCR products were detectable on gels were compared among various samples. cDNAs by successively 10 times dilutions (100, 10, and 1 ng) were amplified. […]

[1] = test system: double-stranded oligonucleotides corresponding to base pairs of an hTGF-β1 promoter; test: Gel shift assay of Py-Im polyamide-oligonucleotide complexes; assay type: binding, human; conditions: 11-base double-stranded DNA containing the target sequence, compared with lanes with DS only, FIG. 3
Protocol: Oligonucleotides were synthesized and annealed, and thereby 12 types of double-stranded oligonucleotides corresponding to base pairs of an hTGF-β1 promoter were prepared. A double-strand DNA was labeled with [γ-^32P]-ATP by T4 polynucleotide kinase. The labeled double-stranded DNA was then incubated for 15 minutes at 37° C. with a polyamide or a mismatch polyamide in a binding buffer solution (40 mM Tris, pH 7.9, 250 mM NaCl, 25 mM EDTA, 25 mM DTT, 100 mM KCl). The obtained complexes were separated by electrophoresis on 20% polyacrylamide gels and visualized by autoradiography.
The binding to target sequences of GB1105 and GBP1106 was examined by gel shift assay. Sense and antisense oligonucleotide having 11 bases containing each target sequence of Py-Im polyamide were prepared, annealed to prepare a double-stranded DNA to the target site, and incubated with each Py-Im polyamide. The obtained products were electrophoresed with polyacrylamide gel and the binding between Py-Im and the target sequence was examined.

Row | binding to target sequence (migration of double-stranded DNA in gel shift) [1] | Structure (SMILES) | increase of expression of TGFβ1 gene (TGF-β1 messenger RNA; 1×10^−6 M of PMA stimulation, human mesangium cells) | inhibition of expression of TGFβ1 gene (TGF-β1 messenger RNA)
1 |  | CCCCCCCCCCCCCC(=O)O[C@@H]1[C@@H](C)[C@@]2(O)[C@@H](C=C(CO)C[C@]3(O)C(=O)C(C)=C[C@@H]23)[C@@H]2C(C)(C)[C@]12OC(C)=O [PMA, 12-o-tetradecanoylpholbol-13-acetate, reference compound] | 20% | 
2 | decreased the migration degree | CNCCCNC(=O)CCNC(=O)c1cc(NC(=O)c2cc(NC(=O)CCNC(=O)c3cc(NC(=O)c4cc(NC(=O)c5cc(NC(=O)CCCNC(=O)c6nc(NC(=O)c7cc(NC(=O)c8nc(NC(=O)CCNC(=O)c9nc(NC(=O)c%10nc(NC(C)=O)cn%10C)cn9C)cn8C)cn7C)cn6C)cn5C)cn4C)cn3C)cn2C)cn1C [GBP1105] |  | up to 50%
3 | decreased the migration degree | CC(=O)Nc1cn(C)c(C(=O)Nc2cc(C(=O)Nc3cn(C)c(C(=O)NCCC(=O)Nc4cc(C(=O)Nc5cc(C(=O)Nc6cc(C(=O)NCCCC(=O)Nc7cn(C)c(C(=O)Nc8cc(C(=O)Nc9cn(C)c(C(=O)NCCC(=O)Nc%10cc(C(=O)Nc%11cc(C(=O)Nc%12cc(C(=O)NCCC(=O)NCCCN(C)C)n(C)c%12)n(C)c%11)n(C)c%10)n9)n(C)c8)n7)n(C)c6)n(C)c5)n(C)c4)n3)n(C)c2)n1 [GBP1106] |  | up to 50%
